Laboratory results reported in PMC8954792 (Viruses, 2022).

What follows are molecules tested on authentic SARS-CoV-2 Delta (B.1.617.2) variant (assay: microbe, parasite or virus in culture). Conditions: Severe acute respiratory syndrome coronavirus 2, Vero C1008.
Format: cell-based
With `O=C(O)c1cc(-c2ccc(/C=C3\SC(=S)N(CCc4ccc(OCc5ccc(F)cc5)cc4)C3=O)o2)ccc1Cl` [FD010] the IC50 was 26.3 nM.
Molecule `C#CCOCCOc1ccc(CCN2C(=O)/C(=C/c3ccc(-c4ccc(Cl)c(C(=O)O)c4)o3)SC2=S)cc1` [FD008] has an IC50 of 95.9 nM.
`O=C(O)c1cc(-c2ccc(/C=C3\SC(=S)N(CCc4ccc(OCc5ccsc5)cc4)C3=O)o2)ccc1Cl` [FD013] was tested, and the IC50 was 60.3 nM.
For `CCOc1ccc(CCN2C(=O)/C(=C/c3ccc(-c4ccc(Cl)c(C(=O)O)c4)o3)SC2=S)cc1` [FD009], the IC50 was 13.5 nM.
`C#CCOc1ccc(CCN2C(=O)/C(=C/c3ccc(-c4ccc(Cl)c(C(=O)O)c4)o3)SC2=S)cc1` [FD007] gave an IC50 of 52.5 nM.
In the case of `O=C(O)c1cc(-c2ccc(/C=C3\SC(=S)N(CCc4ccc(OCC5CC5)cc4)C3=O)o2)ccc1Cl` [FD012], the IC50 is reported as 126 nM.
Work on `CCC(CC)COC(=O)[C@H](C)N[P@](=O)(OC[C@H]1O[C@@](C#N)(c2ccc3c(N)ncnn23)[C@H](O)[C@@H]1O)Oc1ccccc1` [Remdesivir, remdesivir, reference compound] yielded an IC50 of 18.6 nM.
